Measurements as given in patent EP0745595A1, “3-(3-Aryloxyphenyl)-1-(substituted methyl)-s-triazine-2,4,6-oxo or thiotrione herbicidal agents” (American Cyanamid Company, priority 1995, dated 1996).

Experiments:
Format in all cases: in vivo
[1] = test system: ABUTILON THEOPHRASTI, MEDIC.; assay: Postemergence herbicidal evaluation, ABUTH (Velvetleaf)
In short: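 This postemergence herbicide test used two-week-old velvetleaf seedlings grown in jiffy flats. Each compound was sprayed at 40 psi as a dispersion in 50/50 acetone/water with 0.5% TWEEN®20 surfactant. Plants then received routine greenhouse care. After four to five weeks, injury was scored visually on a 0-9 scale against a control, and replicate tests were averaged.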

[2] = test system: AMBROSIA ARTEMISIIFOLIA, L.; assay: Postemergence herbicidal evaluation, AMBEL (Ragweed, Common)
In short: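 Postemergence herbicidal activity on AMBEL (common ragweed) was assessed on two-week-old seedlings grown in jiffy flats. Treatment solutions of 50/50 acetone/water with 0.5% TWEEN®20 surfactant were sprayed at 40 psi. After four to five weeks in the greenhouse, plants were scored 0-9 against a control for stand, vigor, malformation, size, chlorosis and overall appearance, with multiple tests averaged.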

CHENOPODIUM ALBUM, L. [3] = assay: Postemergence herbicidal evaluation, CHEAL (Lambsquarters, Common)
In short: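 Postemergence herbicidal activity on Chenopodium album was tested by spraying two-week-old seedlings grown in jiffy flats with compound in acetone/water (50/50) plus 0.5% TWEEN®20, using a 40 psi nozzle. Four to five weeks after treatment, stand, vigor, malformation, size, chlorosis and overall appearance were scored 0-9 relative to controls, with repeat tests averaged.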

IPOMOEA SPP. = assay: Postemergence herbicidal evaluation, IPOSS (Morningglory spp.)
In short: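 In this greenhouse postemergence herbicide test on Ipomoea spp. (morningglory), compounds in 50/50 acetone/water with 0.5% TWEEN®20 were sprayed at 40 psi onto seedlings about two weeks old grown in jiffy flats. After four to five weeks, injury was scored on a 0-9 scale covering stand, vigor, malformation, size, chlorosis and overall appearance versus control, with repeat tests averaged.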

GALIUM APARINE = assay: Postemergence herbicidal evaluation, GALAP (Galium); set-up: key to GALAP rating / Herbicidal effect rating, GALAP / GALAP: 0-9 visual rating scale vs untreated control
In short: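 In this postemergence greenhouse test, two-week-old Galium aparine seedlings grown in jiffy flats received a 40 psi spray of compound in acetone/water (50/50) with 0.5% TWEEN®20 surfactant. After four to five weeks, stand, vigor, malformation, size, chlorosis and overall appearance were compared with untreated controls on a 0-9 scale, averaging multiple tests.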

[4] = test system: ECHINOCHLOA CRUS-GALLI, (L) BEAU; assay: Postemergence herbicidal evaluation, ECHCG (Barnyardgrass); set-up: key to ECHCG rating / Herbicidal effect rating, ECHCG / ECHCG: 0-9 visual rating scale vs untreated control
In short: (§1)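 Postemergence foliar spray at approximately 0.125–0.500 kg/ha onto two-week seedlings; greenhouse hold, then 0–9 visual injury rating after 4–5 weeks.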

[5] = test system: SETARIA VIRIDIS, (L) BEAU; assay: Postemergence herbicidal evaluation, SETVI (Foxtail, Green); set-up: key to SETVI rating / Herbicidal effect rating, SETVI / SETVI: 0-9 visual rating scale vs untreated control
In short: as §1

[6] = test system: TRITICUM AESTIVUM, CV. APOLLO; assay: Postemergence herbicidal evaluation, TRZAWO (Wheat, Winter, CV. APOLLO)
In short: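 This greenhouse postemergence test applied compounds to roughly two-week-old wheat seedlings grown in jiffy flats. The spray solution was 50/50 acetone/water with 0.5% TWEEN®20, a polyoxyethylene sorbitan monolaurate, sprayed from a nozzle run at 40 psi. After four to five weeks of standard greenhouse care, injury was scored from 0 to 9 by comparing stand, vigor, malformation, size, chlorosis and overall appearance with a control. Multiple tests were averaged.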

ZEA MAYS L. = assay: Postemergence herbicidal evaluation, ZEAMX (Corn, Field)
In short: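 This greenhouse postemergence test treated corn plants about two weeks old. Compounds in a 50/50 acetone/water mixture with 0.5% TWEEN®20 were applied through a spray nozzle at 40 psi. After four to five weeks, injury was scored 0-9 against an untreated control, judging stand, vigor, malformation, size, chlorosis and overall appearance. Repeated tests were averaged.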

CHENOPODIUM ALBUM, L. [7] = assay: Preemergence herbicidal evaluation, CHEAL (Lambsquarters, Common); details: for CHEAL herbicidal rating: rated four to five weeks after treatment
In short: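 Injury scored visually (0–9; stand, vigor, malformation, size, chlorosis) versus untreated control, four to five weeks post-treatment. Application: aqueous acetone spray onto freshly planted soil cups, equivalent to about 0.125 to 0.50 kg/ha, plants then kept under standard greenhouse care.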

[8] = test system: ORYZA SATIVA, L. TEBONNET; assay: Rice tolerance to post-transplant applications under flooded paddy conditions, ORYSAT (Rice, Tebonnet); details: for Herbicidal effect rating, ORYSAT: post-transplant rice, 3-4 weeks after treatment; for ORYSAT: post-transplanted rice
In short: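 Greenhouse pots of silt loam, each with two transplanted ten-day-old seedlings, are held under 1.5 to 3 cm of standing water. Three days later the compound is applied to the flooded surface at about 0.5, 0.25, 0.125 or 0.063 kg/ha. Damage is scored visually 0-9 after 3-4 weeks.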

Question: What does the source list for “Methyl 3-{2-[(2-chloro-α,α,α,-trifluoro-p-tolyl)oxy]phenyl}tetrahydro-5-methyl-2,4,6-trioxo-s-triazine-1(2H)-acetate [Compound 28]”?
Answer: ABUTH ([1]; Rate 0.063 kg/ha): 4.0; ABUTH ([1]; Rate 0.125 kg/ha): 6.0; ABUTH rating ([1]; Rate 0.125 kg/ha): 6.0; ABUTH ([1]; Rate 0.250 kg/ha): 7.0; ABUTH rating ([1]; Rate 0.250 kg/ha): 7.0; ABUTH ([1]; Rate 0.500 kg/ha): 9.0; ABUTH rating ([1]; Rate 0.500 kg/ha): 9.0; AMBEL ([2]; Rate 0.063 kg/ha): 3.0; AMBEL ([2]; Rate 0.125 kg/ha): 4.0; AMBEL rating ([2]; Rate 0.125 kg/ha): 4.0; AMBEL ([2]; Rate 0.250 kg/ha): 6.0; AMBEL rating ([2]; Rate 0.250 kg/ha): 6.0; AMBEL ([2]; Rate 0.500 kg/ha): 7.0; AMBEL rating ([2]; Rate 0.500 kg/ha): 7.0; CHEAL (CHENOPODIUM ALBUM, L. [3]; Rate 0.063 kg/ha): 6.0; CHEAL (CHENOPODIUM ALBUM, L. [3]; Rate 0.125 kg/ha): 6.0; CHEAL rating (CHENOPODIUM ALBUM, L. [3]; Rate 0.125 kg/ha): 6.0; CHEAL (CHENOPODIUM ALBUM, L. [3]; Rate 0.250 kg/ha): 8.0; CHEAL rating (CHENOPODIUM ALBUM, L. [3]; Rate 0.250 kg/ha): 8.0; CHEAL (CHENOPODIUM ALBUM, L. [3]; Rate 0.500 kg/ha): 9.0; CHEAL rating (CHENOPODIUM ALBUM, L. [3]; Rate 0.500 kg/ha): 9.0; IPOSS (IPOMOEA SPP.; Rate 0.063 kg/ha): 6.0; IPOSS (IPOMOEA SPP.; Rate 0.125 kg/ha): 6.0; IPOSS rating (IPOMOEA SPP.; Rate 0.125 kg/ha): 6.0; IPOSS (IPOMOEA SPP.; Rate 0.250 kg/ha): 8.0; IPOSS rating (IPOMOEA SPP.; Rate 0.250 kg/ha): 8.0; IPOSS (IPOMOEA SPP.; Rate 0.500 kg/ha): 9.0; IPOSS rating (IPOMOEA SPP.; Rate 0.500 kg/ha): 9.0; GALAP (GALIUM APARINE; Rate 0.063 kg/ha): 6.0; GALAP (GALIUM APARINE; Rate 0.125 kg/ha): 4.0; GALAP rating (GALIUM APARINE; Rate 0.125 kg/ha): 4.0; GALAP (GALIUM APARINE; Rate 0.250 kg/ha): 5.0; GALAP rating (GALIUM APARINE; Rate 0.250 kg/ha): 5.0; GALAP (GALIUM APARINE; Rate 0.500 kg/ha): 4.5; GALAP rating (GALIUM APARINE; Rate 0.500 kg/ha): 4.5; ECHCG ([4]; Rate 0.063 kg/ha): 0.0; ECHCG ([4]; Rate 0.125 kg/ha): 0.0; ECHCG rating ([4]; Rate 0.125 kg/ha): 0.0; ECHCG ([4]; Rate 0.250 kg/ha): 0.0; ECHCG rating ([4]; Rate 0.250 kg/ha): 0.0; ECHCG ([4]; Rate 0.500 kg/ha): 2.0; ECHCG rating ([4]; Rate 0.500 kg/ha): 2.0; SETVI ([5]; Rate 0.063 kg/ha): 1.0; SETVI ([5]; Rate 0.125 kg/ha): 1.0; SETVI rating ([5]; Rate 0.125 kg/ha): 1.0; SETVI ([5]; Rate 0.250 kg/ha): 2.0; SETVI rating ([5]; Rate 0.250 kg/ha): 2.0; SETVI ([5]; Rate 0.500 kg/ha): 4.0; SETVI rating ([5]; Rate 0.500 kg/ha): 4.0; TRZAWO ([6]; Rate 0.063 kg/ha): 1.5; TRZAWO ([6]; Rate 0.125 kg/ha): 2.0; TRZAWO rating ([6]; Rate 0.125 kg/ha): 2.0; TRZAWO ([6]; Rate 0.250 kg/ha): 2.0; TRZAWO rating ([6]; Rate 0.250 kg/ha): 2.0; TRZAWO ([6]; Rate 0.500 kg/ha): 2.0; TRZAWO rating ([6]; Rate 0.500 kg/ha): 2.0; ZEAMX (ZEA MAYS L.; Rate 0.063 kg/ha): 1.5; ZEAMX (ZEA MAYS L.; Rate 0.125 kg/ha): 2.5; ZEAMX rating (ZEA MAYS L.; Rate 0.125 kg/ha): 2.5; ZEAMX (ZEA MAYS L.; Rate 0.250 kg/ha): 4.0; ZEAMX rating (ZEA MAYS L.; Rate 0.250 kg/ha): 4.0; ZEAMX (ZEA MAYS L.; Rate 0.500 kg/ha): 4.5; ZEAMX rating (ZEA MAYS L.; Rate 0.500 kg/ha): 4.5; CHEAL (CHENOPODIUM ALBUM, L. [7]; Rate 0.125 kg/ha): 3.0; CHEAL herbicidal rating (CHENOPODIUM ALBUM, L. [7]; Rate 0.125 kg/ha): 3.0; CHEAL (CHENOPODIUM ALBUM, L. [7]; Rate 0.250 kg/ha): 6.0; CHEAL herbicidal rating (CHENOPODIUM ALBUM, L. [7]; Rate 0.250 kg/ha): 6.0; CHEAL (CHENOPODIUM ALBUM, L. [7]; Rate 0.500 kg/ha): 7.0; CHEAL herbicidal rating (CHENOPODIUM ALBUM, L. [7]; Rate 0.500 kg/ha): 7.0; CHEAL (CHENOPODIUM ALBUM, L. [7]; Rate 1.000 kg/ha): 9.0; Herbicidal effect rating, ORYSAT ([8]; 0.063 kg/ha): 0.0; Herbicidal effect rating, ORYSAT ([8]; 0.125 kg/ha): 1.0; Herbicidal effect rating, ORYSAT ([8]; 0.250 kg/ha): 2.0; Herbicidal effect rating, ORYSAT ([8]; 0.500 kg/ha): 2.0; ORYSAT ([8]; Rate 0.250 kg/ha): 2.0; ORYSAT ([8]; Rate 0.500 kg/ha): 2.0; ORYSAT ([8]; Rate 1.000 kg/ha): 3.0
